Columns and labels:
[1] = Cmax in mouse at 15 mg/kg, po; format: ADME, organism-based; set-up: dose 15 mg/kg, route oral; details: in vivo
Toll-like receptor 9 [2] = biological target: T1, Toll-like receptor 9 (Mus musculus, UniProt Q9EQU3); assay: Antagonist activity at TLR9 in mouse whole blood cells assessed as inhibition of ODN-2216 induced IL-6 production by ELISA; format: cell-based
T1 sequence (Q9EQU3 whole entry): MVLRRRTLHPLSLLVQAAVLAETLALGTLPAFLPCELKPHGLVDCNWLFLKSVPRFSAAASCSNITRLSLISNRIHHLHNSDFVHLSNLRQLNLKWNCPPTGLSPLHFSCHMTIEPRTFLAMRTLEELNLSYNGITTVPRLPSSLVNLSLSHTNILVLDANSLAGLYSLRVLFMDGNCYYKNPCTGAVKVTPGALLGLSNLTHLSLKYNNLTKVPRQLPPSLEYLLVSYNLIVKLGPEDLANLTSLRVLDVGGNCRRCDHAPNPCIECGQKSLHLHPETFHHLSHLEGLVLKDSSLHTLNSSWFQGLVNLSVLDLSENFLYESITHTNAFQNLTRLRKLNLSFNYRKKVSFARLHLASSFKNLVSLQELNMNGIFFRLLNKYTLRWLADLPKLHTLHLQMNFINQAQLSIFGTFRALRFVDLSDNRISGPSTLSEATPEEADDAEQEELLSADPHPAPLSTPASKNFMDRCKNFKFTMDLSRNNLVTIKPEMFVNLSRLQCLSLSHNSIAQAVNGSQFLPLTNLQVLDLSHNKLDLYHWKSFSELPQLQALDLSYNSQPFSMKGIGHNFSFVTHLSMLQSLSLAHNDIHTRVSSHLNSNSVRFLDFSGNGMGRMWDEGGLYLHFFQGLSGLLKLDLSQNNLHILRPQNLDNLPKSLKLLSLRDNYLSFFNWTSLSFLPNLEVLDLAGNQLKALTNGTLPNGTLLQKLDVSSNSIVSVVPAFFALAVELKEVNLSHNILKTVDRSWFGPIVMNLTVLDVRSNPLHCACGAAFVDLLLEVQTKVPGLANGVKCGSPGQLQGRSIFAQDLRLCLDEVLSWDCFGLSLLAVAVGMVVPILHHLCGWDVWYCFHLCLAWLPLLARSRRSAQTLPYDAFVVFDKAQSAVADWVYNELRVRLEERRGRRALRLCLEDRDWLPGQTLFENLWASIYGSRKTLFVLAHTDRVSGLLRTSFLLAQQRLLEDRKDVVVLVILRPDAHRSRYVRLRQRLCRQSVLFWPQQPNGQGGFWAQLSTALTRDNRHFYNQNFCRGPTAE

[3] = Clearance in mouse at 3 mg/kg, iv; format: ADME, organism-based; details: in vivo
Toll-like receptor 9 [4] = biological target: T2, Toll-like receptor 9 (Homo sapiens, UniProt Q9NR96); assay: Agonist activity at human TLR9 overexpressed in HEK-Blue cells assessed as NFkappaB expression by reporter gene assay; format: cell-based
T2 sequence (Q9NR96 whole entry): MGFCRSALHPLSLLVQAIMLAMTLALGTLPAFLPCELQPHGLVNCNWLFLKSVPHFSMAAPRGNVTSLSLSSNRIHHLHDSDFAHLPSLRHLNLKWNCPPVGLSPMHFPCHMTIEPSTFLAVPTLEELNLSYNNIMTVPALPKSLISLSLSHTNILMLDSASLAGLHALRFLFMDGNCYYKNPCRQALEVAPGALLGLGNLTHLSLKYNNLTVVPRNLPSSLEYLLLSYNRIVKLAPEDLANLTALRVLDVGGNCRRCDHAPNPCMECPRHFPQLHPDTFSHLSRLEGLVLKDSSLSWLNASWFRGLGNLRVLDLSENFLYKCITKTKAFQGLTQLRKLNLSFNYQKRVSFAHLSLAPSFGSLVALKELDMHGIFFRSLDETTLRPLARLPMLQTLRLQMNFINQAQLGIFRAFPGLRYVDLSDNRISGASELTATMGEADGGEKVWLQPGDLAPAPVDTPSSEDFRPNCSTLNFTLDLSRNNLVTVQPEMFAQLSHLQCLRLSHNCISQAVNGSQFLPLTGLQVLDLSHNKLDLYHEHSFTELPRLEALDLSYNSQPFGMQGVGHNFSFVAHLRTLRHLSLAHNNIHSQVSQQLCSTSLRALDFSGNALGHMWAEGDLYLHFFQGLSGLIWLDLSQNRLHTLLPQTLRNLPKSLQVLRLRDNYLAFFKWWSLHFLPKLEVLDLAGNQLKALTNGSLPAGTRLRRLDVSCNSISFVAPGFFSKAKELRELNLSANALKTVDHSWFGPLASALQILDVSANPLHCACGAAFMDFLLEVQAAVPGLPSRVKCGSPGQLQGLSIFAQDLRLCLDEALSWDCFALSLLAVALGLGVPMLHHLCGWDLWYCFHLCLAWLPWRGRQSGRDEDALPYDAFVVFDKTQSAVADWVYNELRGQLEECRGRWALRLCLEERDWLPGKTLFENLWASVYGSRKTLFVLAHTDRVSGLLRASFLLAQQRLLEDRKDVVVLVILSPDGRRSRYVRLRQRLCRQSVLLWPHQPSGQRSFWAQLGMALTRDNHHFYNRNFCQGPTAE

- Cmax [1]: 1630 nM
- IC50 (Toll-like receptor 9 [2]): 510 nM
- clearance [3]: 7.7 mL/min/kg
- IC50 (Toll-like receptor 9 [4]): > 50000 nM
SMILES: CNCCN1CCC(c2ccc3[nH]c(-c4ccc(OC)c(OC)c4)c(C(C)C)c3c2)CC1

From ChEMBL document CHEMBL4619828, “Discovery of Potent and Orally Bioavailable Small Molecule Antagonists of Toll-like Receptors 7/8/9 (TLR7/8/9)” (ACS Med Chem Lett, 2020)
